In patent publication US20240142467A1, “Use of Biomarkers in the Treatment of Fibrotic Conditions with a PDE4B-inhibitor” (Boehringer Ingelheim International GmbH, priority 2022, published 2024):
Like-named read-outs stand apart in the source and are kept apart here.

How the values were obtained:
[1] = system: bleomycin-induced lung fibrosis; test: Rat bleomycin model of pulmonary fibrosis; type: in vivo, Wistar rats
Procedure: Pulmonary remodeling was induced in rats by a single intratracheal administration of 1 mg/kg bleomycin.
Adult, test-naïve, male Wistar rats (WI(Han)); 280-300 g) were purchased from Janvier (Janvier Labs, Le Genest-Saint-Isle, France). All animal experimentation was conducted in accordance with German national guidelines and legal regulations and approved by the ethical committee Regierungspräsidium Tübingen (Germany) (Permit Number: 12-012).
Bleomycin was dissolved in phosphate buffered saline (PBS) to a final concentration of […]. On day 0, animals were transiently anaesthetised with isoflurane (3-4%) in oxygen. Using a 1 ml-Syringe with a 22-gauge flexible cannula, 200 μL/kg of either saline or bleomycin (final dose 1 mg/kg) were administered intratracheally.
The PDE4-inhibitor of formula A′ was dissolved in 0.5% hydroxyethyl cellulose containing 0.01% Tween20 and applied by oral gavage at a dose of 2.5 mL/kg twice daily at 06:00 and 18:00 from day 10 until day 20.
On day 18, animals were anaesthetized using 3-4% isoflurane and placed on the μCT (Quantum FX) scanner mounting plate. After measurement, animals were returned to the home cage for recovery. During imaging, synchronization procedures were employed for avoidance of motion blur (respiration, heart beat) thereby improving the quality of the images. The reconstruction of the three-dimensional pictures from the raw data could subsequently be performed.
Animals were anaesthetised with Narcoren (60 mg/mL/kg body weight i.p.) and Ketamine (0.5-1 mg/animal, i.m.). The trachea was exposed, a small incision made, and a tracheal tube fixed within the trachea by a ligature. Spontaneous breathing was suppressed by pancuronium (0.8 mg/kg; 1 mL/kg body weight, i.v.) and animals were mechanically ventilated with a tidal volume of 10 mL/kg, breathing frequency of 90 breaths/minute and a positive end expiratory pressure of 3 cmH2O. Airway resistance, compliance, elastance and pressure volume loop was determined by means of a FlexiVent system supported by software version 7.2. To perform the lung function measurement the template “FlexiVent FX-Rat Default-rel.B” with the script “Rat 6basic_1loop v7.0 Lamb” was used. A deep inspiration to total lung capacity (Deep Inflation) was performed with an inflation pressure limited to 30 cmH2O. A “Snapshot-90 v7.0, Quick Prime-3 v7.0, PVS-V v7.0 and PVs-P v7.0 measurement was subsequently conducted. After the lung function measurement animals were euthanized by an overdose of Narcoren (0.16 g/5 ml, 1 ml/animal i.v.).
The right main bronchus was occluded with a ligature and the right lung was removed. […]
All data are presented as means±S.E.M. of n animals. Statistical differences between groups were analyzed by the non-clinical statistical group.

[2] = system: IPF-rc-stimulated primary human small airway epithelial cells (SAEC); test: Biomarker release of IPF-rc-stimulated small airway epithelial cells (ELISA of supernatants); type: cell-based; conditions: for inhibition at 10 µM / IC50: Homo sapiens; for inhibition at 10 µM: SAEC, highest concentration 10 μM; for IC50: SAEC from 5 donors, 30 min pre-stimulation, supernatants 72 hrs after stimulation
Procedure: Small airway epithelial cells of primary human origin at passage 4 were seeded in PneumaCult-Ex Plus complete medium onto rat tail collagen type I (30 μg/mL in PBS) coated 24-well plates.
After incubation for 24 hrs at 37° C. and 5% CO2 cells were pre-stimulated with the PDE4-inhibitor of formula A′ for 30 min in different concentrations in PneumaCult-Ex Plus starving medium.
Afterwards an IPF-relevant cytokine cocktail (Schruf E, Schroeder V, Le H Q, Schönberger T, Raedel D, Stewart E L, Fundel-Clemens K, Bluhmki T, Weigle S, Schuler M, Thomas M J, Heilker R, Webster M J, Dass M, Frick M, Stierstorfer B, Quast K, Garnett J P. Recapitulating idiopathic pulmonary fibrosis related alveolar epithelial dysfunction in a human iPSC-derived air-liquid interface model. FASEB J. 2020 June; 34(6):7825-7846) was added to induce fibrotic changes. 72 hrs after stimulation supernatants were collected and analyzed using R&D DuoSet ELISAs following the manufacturers protocol.
To determine the inhibitory potency of the PDE4-inhibitor of formula A′ on biomarker release of IPF-rc-stimulated primary human small airway epithelial cells, the supernatants of the cell culture from 5 different donors were analyzed.

In the case of [O-][S@+]1CCc2nc(N3CCC(c4ncc(Cl)cn4)CC3)nc(NC3(CO)CCC3)c21 [Compound of formula A′], the “improvement in tissue volume (ratio of remodeled tissue to total lung volume) measured by μCT” value ([1]; 2.5 mg/kg oral twice daily, day 10 to day 20, μCT on day 18, bleomycin 1 mg/kg intratracheal, P<0.05) is reported as 64%, the “restoration of lung volume measured at a pressure of 30 cmH2O” value ([1]; oral twice daily, day 10 to day 20, FlexiVent, P<0.05) is reported as 31% and the “reduction of OPN levels in lung tissue” value ([1]; oral twice daily, day 10 to day 20, OPN ELISA of right lung homogenate) is reported as “approx. 49%”. For the same molecule, the lung function ([1]; therapeutic rat model of bleomycin-induced lung fibrosis) was “improved lung function”, the inhibition at 10 µM ([2]; read-out: maximal inhibition of CTGF release) was 75% and the inhibition at 10 µM ([2]; read-out: maximal inhibition of MMP7 release) was 63%. It also gave an inhibition at 10 µM ([2]; read-out: maximal inhibition of OPN release) of 67%, an inhibition at 10 µM ([2]; read-out: maximal inhibition of sICAM release) of 39% and an IC50 ([2]; read-out: IC50 of IPF-rc-induced release of CTGF) of roughly 370 nM. It also gave an IC50 ([2]; read-out: IC50 of IPF-rc-induced release of MMP7) of roughly 4400 nM, an IC50 ([2]; read-out: IC50 of IPF-rc-induced release of OPN) of roughly 1100 nM and an IC50 ([2]; read-out: IC50 of IPF-rc-induced release of sICAM) of roughly 537 nM. For the same molecule, the “inhibition of the release of PAI1 (plasminogen activator inhibitor 1)” value ([2]; IPF-rc-stimulated SAEC) was “concentration dependent manner”.
